Source: patent publication US20230085549A1 (Janssen Pharmaceutica NV, priority 2021, published 2023)
Like-named read-outs stand apart in the source and are kept apart here.

How the values were obtained:
Beagle dogs = experiment: Subchronic study in Beagle dogs with risperidone; type: in vivo; details: all doses tested ([…]-5.0 mg/kg)
Source text: (§1) Serum testosterone and sperm parameters partially recovered, but remained decreased after the last observation (two months after treatment was discontinued).

Juvenile dogs = experiment: Juvenile dog study with oral risperidone, 40 weeks
[1] = tested on: pregnant mice, rats and rabbits; experiment: Reproduction toxicity studies with orally administered risperidone; type: in vivo
Source text: Increased neuronal cell death occurred in the fetal brains of the offspring of pregnant rats treated at 0.5 to 1.2 times the MRHD; the postnatal development and growth of the offspring was delayed.

bacteria = experiment: In vitro Ames bacterial reverse mutation test; type: cell-based
[2] = Solubility in solvents and water; type: physicochemical
mouse lymphoma = experiment: Mouse lymphoma assay; type: cell-based
rats = experiment: Oral paliperidone study of fertility in rats; type: in vivo
Experimental: These parameters were not affected at an oral dose of 0.63 mg/kg, which is half of the oral MRHD of 12 mg based on mg/m^2 body surface area.
as §1

[3] = tested on: CYP1A2, CYP2A6, CYP2C9, and CYP2C19; experiment: CYP substrate studies in vitro; type: in vitro ADME, human
[4] = molecular target: central Dopamine type 2 (D2) receptor (Homo sapiens, UniProt P14416); details: at paliperidone plasma concentration 7.5 ng/mL; cited from earlier work
Chain of central Dopamine type 2 (D2) receptor (P14416 whole entry): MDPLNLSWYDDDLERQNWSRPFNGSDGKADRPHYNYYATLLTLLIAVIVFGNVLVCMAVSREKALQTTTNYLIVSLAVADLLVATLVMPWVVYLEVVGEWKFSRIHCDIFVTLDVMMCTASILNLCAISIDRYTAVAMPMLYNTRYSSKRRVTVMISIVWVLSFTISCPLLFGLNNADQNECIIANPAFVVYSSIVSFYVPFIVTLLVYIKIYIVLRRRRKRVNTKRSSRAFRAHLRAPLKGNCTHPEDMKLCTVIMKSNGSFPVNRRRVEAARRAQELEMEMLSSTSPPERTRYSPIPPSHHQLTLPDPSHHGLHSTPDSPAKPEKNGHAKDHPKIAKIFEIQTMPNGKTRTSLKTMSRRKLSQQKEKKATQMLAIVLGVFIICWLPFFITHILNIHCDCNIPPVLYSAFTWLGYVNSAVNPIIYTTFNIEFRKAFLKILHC

serotonin 5HT2A receptor = serotonin 5HT2A receptor (Homo sapiens, UniProt P28223); experiment: biochemical
Chain of serotonin 5HT2A receptor (P28223 whole entry): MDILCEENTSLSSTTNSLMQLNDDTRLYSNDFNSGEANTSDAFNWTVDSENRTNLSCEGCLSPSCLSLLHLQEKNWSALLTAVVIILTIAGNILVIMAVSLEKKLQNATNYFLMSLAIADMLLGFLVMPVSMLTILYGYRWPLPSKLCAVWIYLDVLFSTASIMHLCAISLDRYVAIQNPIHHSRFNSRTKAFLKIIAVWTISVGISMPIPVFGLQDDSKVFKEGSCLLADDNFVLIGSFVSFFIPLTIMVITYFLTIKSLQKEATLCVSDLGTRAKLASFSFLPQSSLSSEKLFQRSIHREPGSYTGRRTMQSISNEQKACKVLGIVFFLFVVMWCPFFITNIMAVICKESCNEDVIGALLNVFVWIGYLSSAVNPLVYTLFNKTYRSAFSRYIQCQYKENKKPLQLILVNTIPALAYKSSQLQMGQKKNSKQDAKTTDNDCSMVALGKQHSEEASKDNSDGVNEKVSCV

[5] = tested on: pregnant rats and rabbits; experiment: Animal reproduction studies, oral paliperidone during organogenesis; type: in vivo; details: period of organogenesis, mg/m^2
α2 adrenergic receptor = experiment: In vitro receptor binding affinity; details: antagonist
juvenile rats = experiment: Juvenile rat study with oral paliperidone; type: in vivo
[6] = Drug interaction studies with oral paliperidone; type: in vivo, human
Source text: Higher doses of paroxetine have not been studied.
This interaction has not been studied with INVEGA HAFYERA.

rat bone marrow = experiment: In vivo rat bone marrow micronucleus test
[7] = tested on: cholinergic muscarinic receptors; experiment: In vitro receptor binding affinity
[8] = Pharmacokinetics in specific populations (oral paliperidone studies, population PK modelling); type: in vivo, human; details: elderly subjects
Source text: No specific pharmacokinetic studies have been performed with […] in specific populations. All the information is obtained from studies with oral paliperidone or is based on the population pharmacokinetic modelling of oral paliperidone and […].

[9] = tested on: cytochrome P450 isozymes, including CYP1A2, CYP2A6, CYP2C8/9/10, CYP2D6, CYP2E1, CYP3A4, and CYP3A5; experiment: Inhibition of drug metabolism in human liver microsomes; type: in vitro ADME
β1-adrenergic receptor = β1-adrenergic receptor (Homo sapiens, UniProt P08588); experiment: In vitro receptor binding affinity
Chain of β1-adrenergic receptor (P08588 whole entry): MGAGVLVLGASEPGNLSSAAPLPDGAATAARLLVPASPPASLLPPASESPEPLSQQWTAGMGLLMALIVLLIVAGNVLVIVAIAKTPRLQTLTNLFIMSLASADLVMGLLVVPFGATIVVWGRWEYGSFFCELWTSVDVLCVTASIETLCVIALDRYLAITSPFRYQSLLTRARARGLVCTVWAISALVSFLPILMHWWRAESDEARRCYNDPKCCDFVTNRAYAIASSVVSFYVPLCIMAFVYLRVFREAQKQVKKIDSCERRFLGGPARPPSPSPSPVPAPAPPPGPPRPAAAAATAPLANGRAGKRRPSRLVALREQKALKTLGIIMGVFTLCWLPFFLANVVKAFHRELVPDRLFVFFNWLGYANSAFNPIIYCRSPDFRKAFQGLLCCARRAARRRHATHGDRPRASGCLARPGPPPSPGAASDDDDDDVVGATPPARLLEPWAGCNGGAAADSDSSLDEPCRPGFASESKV

[10] = human, in vivo, po
Source text: Observed signs and symptoms included extrapyramidal symptoms and gait unsteadiness.

Plasma protein binding = type: in vitro ADME; details: racemic
[11] = molecular target: central dopamine D2 receptor (Homo sapiens, UniProt P14416); experiment: In vitro receptor binding affinity; details: antagonist
Chain of central dopamine D2 receptor (P14416 whole entry): as the sequence (P14416 whole entry) above

[12] = Study with oral immediate-release 14C-paliperidone (excretion, metabolism); type: in vivo
P-glycoprotein (P-gp) = P-glycoprotein (P-gp) (Homo sapiens, UniProt P08183); experiment: P-gp substrate and inhibition studies in vitro; type: in vitro ADME
Chain of P-glycoprotein (P-gp) (P08183 whole entry): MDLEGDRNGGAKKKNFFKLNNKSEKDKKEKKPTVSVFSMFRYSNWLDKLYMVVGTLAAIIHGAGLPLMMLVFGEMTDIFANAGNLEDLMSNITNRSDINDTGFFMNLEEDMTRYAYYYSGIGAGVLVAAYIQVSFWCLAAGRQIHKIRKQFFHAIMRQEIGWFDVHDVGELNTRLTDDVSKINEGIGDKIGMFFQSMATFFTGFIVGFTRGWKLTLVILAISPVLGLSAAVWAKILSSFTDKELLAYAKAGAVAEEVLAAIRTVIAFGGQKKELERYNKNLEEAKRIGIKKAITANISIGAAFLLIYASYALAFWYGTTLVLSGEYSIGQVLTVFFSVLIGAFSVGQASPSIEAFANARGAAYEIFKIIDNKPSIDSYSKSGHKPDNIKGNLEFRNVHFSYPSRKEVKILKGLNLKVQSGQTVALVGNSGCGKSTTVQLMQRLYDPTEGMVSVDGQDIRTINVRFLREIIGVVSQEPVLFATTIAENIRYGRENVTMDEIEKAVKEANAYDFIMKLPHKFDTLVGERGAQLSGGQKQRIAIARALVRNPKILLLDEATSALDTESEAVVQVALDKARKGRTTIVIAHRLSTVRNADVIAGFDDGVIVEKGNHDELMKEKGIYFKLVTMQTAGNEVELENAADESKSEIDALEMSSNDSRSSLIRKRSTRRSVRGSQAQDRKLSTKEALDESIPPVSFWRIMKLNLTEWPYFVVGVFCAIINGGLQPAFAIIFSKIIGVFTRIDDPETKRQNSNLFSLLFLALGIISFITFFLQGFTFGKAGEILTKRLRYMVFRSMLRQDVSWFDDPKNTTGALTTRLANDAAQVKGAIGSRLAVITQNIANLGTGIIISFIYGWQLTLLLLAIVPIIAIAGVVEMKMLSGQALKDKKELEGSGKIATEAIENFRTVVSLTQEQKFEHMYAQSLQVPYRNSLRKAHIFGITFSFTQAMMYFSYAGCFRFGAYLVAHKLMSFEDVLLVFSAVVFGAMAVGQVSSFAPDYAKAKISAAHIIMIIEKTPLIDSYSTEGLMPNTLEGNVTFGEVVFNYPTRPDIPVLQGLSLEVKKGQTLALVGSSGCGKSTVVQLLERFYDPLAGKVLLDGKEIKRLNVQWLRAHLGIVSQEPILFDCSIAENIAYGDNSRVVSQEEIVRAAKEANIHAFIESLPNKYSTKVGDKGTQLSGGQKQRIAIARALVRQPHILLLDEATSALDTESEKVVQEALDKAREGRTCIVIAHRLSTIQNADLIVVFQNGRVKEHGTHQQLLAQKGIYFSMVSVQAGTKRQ

clinical = details: human, in vivo, po, 4 mg
β2-adrenergic receptor = β2-adrenergic receptor (Homo sapiens, UniProt P07550); experiment: In vitro receptor binding affinity
Chain of β2-adrenergic receptor (P07550 whole entry): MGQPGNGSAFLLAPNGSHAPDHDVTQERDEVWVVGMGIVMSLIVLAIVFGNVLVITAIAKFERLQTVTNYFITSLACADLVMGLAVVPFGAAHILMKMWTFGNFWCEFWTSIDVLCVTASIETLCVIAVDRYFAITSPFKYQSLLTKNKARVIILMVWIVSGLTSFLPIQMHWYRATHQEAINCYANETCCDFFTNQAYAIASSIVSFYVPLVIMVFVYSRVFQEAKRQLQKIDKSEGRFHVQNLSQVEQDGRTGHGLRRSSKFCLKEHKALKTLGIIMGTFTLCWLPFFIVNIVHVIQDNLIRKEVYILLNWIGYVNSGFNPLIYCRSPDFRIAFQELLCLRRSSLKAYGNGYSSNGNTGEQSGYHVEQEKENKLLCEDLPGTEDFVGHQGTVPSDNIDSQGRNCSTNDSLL

α1 adrenergic receptor = experiment: In vitro receptor binding affinity; details: antagonist

SMILES: Cc1nc2n(c(=O)c1CCN1CCC(c3noc4cc(F)ccc34)CC1)CCCC2 [risperidone]
- effect on serum testosterone and sperm (Beagle dogs): decreases in serum testosterone and in sperm motility and concentration
- no-effect dose for decreased bone length and density (Juvenile dogs): 0.31 mg/kg/day
- maternal toxicity ([1]; pregnant mice): 4 times the MRHD
- learning impaired in adult offspring ([1]; pregnant rats): 0.6 times the MRHD
- oral doses at which pup deaths occurred ([1]; rat reproduction studies, mg/m^2): less than the MRHD
- doses with no evidence of teratogenicity ([1]; rats and rabbits, embryo-fetal developmental toxicity): up to 6 times the MRHD of 16 mg/day

SMILES: CCCCCCCCCCCCCCCC(=O)OC1CCCn2c1nc(C)c(CCN1CCC(c3noc4cc(F)ccc34)CC1)c2=O (racemic) [paliperidone palmitate, (±)-3-[2-[4-(6-fluoro-1,2-benzisoxazol-3-yl)-1-piperidinyl]ethyl]-6,7,8,9-tetrahydro-2-methyl-4-oxo-4H-pyrido[1,2-c]pyrimidin-9-yl hexadecanoate]
- genotoxicity (bacteria): no genotoxicity
- solubility in ethanol and methanol [2]: very slightly soluble
- solubility in ethyl acetate [2]: slightly soluble
- solubility in polyethylene glycol 400 and propylene glycol [2]: practically insoluble
- water solubility [2]: extreme low water solubility
- genotoxicity (mouse lymphoma): no genotoxicity

SMILES: Cc1nc2n(c(=O)c1CCN1CCC(c3noc4cc(F)ccc34)CC1)CCCC2O (stereo not drawn) [paliperidone]
- oral doses at which percentage of treated female rats that became pregnant was not affected (rats; 2 times the oral MRHD of 12 mg): up to 2.5 mg/kg/day
- dose with increased pre- and post-implantation loss and slightly decreased live embryos (rats; female, rat, in vivo, po): 2.5 mg/kg
- oral dose at which these parameters were not affected (rats; half of the oral MRHD of 12 mg): 0.63 mg/kg
- oral doses at which fertility of male rats was not affected (rats; mg/m^2): up to 2 times the oral MRHD of 12 mg/day
- substrate of CYP isozymes [3]: not a substrate for CYP1A2
- substrate of CYP isozymes ([3]; listed as Paliperidone): not a substrate
- central D2 receptor occupancy [4]: 60%
- Ki (serotonin 5HT2A receptor): 0.8 to 1.2 nM
- exposure without increases in fetal abnormalities [5]: up to 8 times the oral MRHD of 12 mg
- Ki (α2 adrenergic receptor): 17 nM
- no-effect dose for reversible impairment of learning and memory (juvenile rats; females only, oral, days 24 to 73 of age): 0.63 mg/kg/day
- doses without other consistent effects on neurobehavioral or reproductive development (juvenile rats; highest dose tested): ≤ 2.5 mg/kg/day
- increase in Cmax and AUC of paliperidone ([6]; single 12 mg extended-release tablet with divalproex sodium ER two 500 mg tablets once daily): approximately 50%
- increase in renal clearance of paliperidone ([6]; with carbamazepine): 35%
- change in mean Cmax and AUC at steady-state ([6]; with paroxetine 20 mg/day oral): increase in mean Cmax and AUC values
- genotoxicity (rat bone marrow): not genotoxic
- affinity [7]: no appreciable affinity
- increase of Cmax and AUC compared to young subjects [8]: 1.2 fold
- inhibition of metabolism of drugs metabolized by cytochrome P450 isozymes [9]: does not substantially inhibit
- genotoxicity (bacteria): not genotoxic
- affinity (β1-adrenergic receptor): no appreciable affinity
- highest estimated ingestion in overdose [10]: 405 mg
- fraction unbound (Plasma protein binding): 0.26
- Ki [11]: 1.6 to 2.8 nM
- dose excreted unchanged into urine ([12]; one week after single oral dose of 1 mg): 59%
- administered radioactivity recovered in the feces ([12]; single oral dose of 1 mg): 11%
- administered radioactivity recovered in urine ([12]; single oral dose of 1 mg): Approximately 80%
- genotoxicity (mouse lymphoma): not genotoxic
- P-gp inhibition (P-glycoprotein (P-gp); at high concentrations): weak inhibitor
- P-gp substrate (P-glycoprotein (P-gp); in vitro): substrate of P-glycoprotein (P-gp)
- Cmax (clinical): 35 ng/mL
- affinity (β2-adrenergic receptor): no appreciable affinity
- Ki (α1 adrenergic receptor): 4 nM
